Results on three compounds are retold here after ChEMBL document CHEMBL1201862, “PubChem BioAssay data set” (2004).

For experiment [1], the target named is Small ubiquitin-related modifier 1 (Homo sapiens, UniProt P63165). As to the kind of experiment: SUMO1 protein interaction blockers, potency – biochemical, fluorescence polarization, uHTS hits, dose response (AID 624382). To be noted: read-out: IC50_Mean. The class given is functional.
For experiment [2], the target named is Caspase-8 (Homo sapiens, UniProt Q14790). Briefly: inhibitors of purified CASP8 protease – biochemical, Z-IETD-R110 fluorescence, cherry-picked samples, selectivity assay for caspase-6 inhibitor project, dose response (AID 743294).
For experiment [3], the target named is T1, Protein RecA (Mycobacterium tuberculosis, UniProt P9WHJ3).
T1 sequence (P9WHJ3 whole entry): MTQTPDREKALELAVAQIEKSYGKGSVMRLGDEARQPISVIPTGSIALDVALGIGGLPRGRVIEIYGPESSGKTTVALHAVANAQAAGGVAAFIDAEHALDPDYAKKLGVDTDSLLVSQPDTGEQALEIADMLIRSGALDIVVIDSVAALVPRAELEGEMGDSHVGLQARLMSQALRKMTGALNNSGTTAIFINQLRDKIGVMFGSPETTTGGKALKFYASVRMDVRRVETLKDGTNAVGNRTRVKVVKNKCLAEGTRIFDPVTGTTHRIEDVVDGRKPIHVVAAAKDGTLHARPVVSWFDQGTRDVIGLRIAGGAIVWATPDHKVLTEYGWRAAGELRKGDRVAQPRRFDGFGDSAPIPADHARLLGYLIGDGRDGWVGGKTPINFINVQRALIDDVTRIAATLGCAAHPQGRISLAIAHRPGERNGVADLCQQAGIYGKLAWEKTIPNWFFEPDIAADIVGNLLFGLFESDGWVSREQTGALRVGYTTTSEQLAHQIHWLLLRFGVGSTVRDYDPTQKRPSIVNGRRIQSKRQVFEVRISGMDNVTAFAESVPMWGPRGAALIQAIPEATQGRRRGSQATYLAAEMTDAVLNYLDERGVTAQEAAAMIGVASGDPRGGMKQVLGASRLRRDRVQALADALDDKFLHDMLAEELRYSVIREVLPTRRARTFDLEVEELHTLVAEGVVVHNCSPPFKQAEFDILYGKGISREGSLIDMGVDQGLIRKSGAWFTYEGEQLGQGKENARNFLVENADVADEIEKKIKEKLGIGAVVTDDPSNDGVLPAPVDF
Briefly: RecA Intein Measured in Biochemical System Using Plate Reader - 2047-02_Inhibitor_Dose_DryPowder_Activity. [Related pubchem assays (depositor defined):AID2223]. Also on record: species or system Mycobacterium tuberculosis H37Rv.

Experiment [4] in a line: activation of miR-122 Renilla sensor silencing – cell-based, Huh7 psiCHECK-miR122, Renilla luciferase, cherry-picked, dose response (AID 651956).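 Further: huh7 hepatoma cells stably carrying a psiCHECK-2 miR-122 sensor plasmid; renilla luciferase signal reporting endogenous miR-122 activity after 48 h compound exposure.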 Type of experiment: functional.

Each structure is given as a SMILES string. The source made the active and inactive calls.

Chain of Caspase-8 (Q14790 217-374 limits assumed): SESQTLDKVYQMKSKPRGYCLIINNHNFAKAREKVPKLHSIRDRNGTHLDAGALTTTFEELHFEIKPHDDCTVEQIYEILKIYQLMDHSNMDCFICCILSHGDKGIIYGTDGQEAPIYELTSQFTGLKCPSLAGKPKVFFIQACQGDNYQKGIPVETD
Chain of Caspase-8 (Q14790 385-479 limits assumed): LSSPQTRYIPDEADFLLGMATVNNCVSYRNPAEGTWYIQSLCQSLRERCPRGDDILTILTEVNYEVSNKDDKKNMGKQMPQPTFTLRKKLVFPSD
Chain of Small ubiquitin-related modifier 1 (P63165 whole entry): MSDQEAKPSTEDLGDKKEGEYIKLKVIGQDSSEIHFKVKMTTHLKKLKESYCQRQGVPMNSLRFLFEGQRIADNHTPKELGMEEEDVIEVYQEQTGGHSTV

In the case of `COc1ccc(NS(=O)(=O)c2ccc3c(c2)[C@H]2C=CC[C@H]2[C@@H](c2ccc(C(=O)O)cc2)N3)cc1`, in experiment [1], the IC50 is 4.98 µM (active).

Take `Cn1nc(-c2ccccn2)nc2c(=O)n(C)c(=O)nc1-2`: the concentration at half-maximal activity (AC50) in experiment [2] is 0.436 µM (active); in experiment [3], 0.047 µM (active).

Consider `CCCCCCCCCCn1c2c(c(=N)c3c1CCC3)CCC2`, for which the half-maximal activity concentration (AC50) in experiment [4] is 5.06 µM (active).
